Reference: PubChem BioAssay (NCI)
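Where inhibition never reached the appropriate level, the endpoint shown equals the highest concentration tested. Otherwise, values were interpolated linearly from a five-concentration, 48-hour dose response in 96-well plates. At the GI50, growth is halved. TGI: concentration producing complete growth inhibition.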

Legend:
Test in all cases: NCI anticancer screen, dose series, 48 h
CCRF-CEM leukemia = test system: CCRF-CEM leukemia
HS 578T breast = test system: HS 578T breast
OVCAR-4 ovarian = test system: OVCAR-4 ovarian
OVCAR-5 ovarian = test system: OVCAR-5 ovarian
SNB-75 CNS = test system: SNB-75 CNS
UACC-62 melanoma = test system: UACC-62 melanoma
UO-31 renal = test system: UO-31 renal
HL-60(TB) leukemia = test system: HL-60(TB) leukemia

## O=c1c2c3c(sc2nc2n1N=CN(c1ccc(F)cc1)C2)CCCC3
CCRF-CEM leukemia
  TGI: > 100 µM
HS 578T breast
  TGI: > 100 µM
OVCAR-4 ovarian
  TGI: > 100 µM
OVCAR-5 ovarian
  TGI: > 100 µM
SNB-75 CNS
  TGI: > 100 µM
UACC-62 melanoma
  TGI: > 100 µM
UO-31 renal
  TGI: > 100 µM

## COC(=O)[C@H](Cc1c[nH]c2ccccc12)NC(=O)c1ccccc1I
HL-60(TB) leukemia
  TGI: 54 µM
HS 578T breast
  TGI: 29.8 µM
OVCAR-4 ovarian
  TGI: > 100 µM
OVCAR-5 ovarian
  TGI: > 100 µM
SNB-75 CNS
  TGI: 32.4 µM
UACC-62 melanoma
  TGI: 34.1 µM
UO-31 renal
  TGI: 33.4 µM

## NC(N)=N/N=C/c1c(-c2cc([N+](=O)[O-])c(Cl)cc2Cl)nc2n1CCS2
CCRF-CEM leukemia
  TGI: > 100 µM
HL-60(TB) leukemia
  TGI: 41 µM
HS 578T breast
  TGI: > 100 µM
OVCAR-4 ovarian
  TGI: 33.9 µM
OVCAR-5 ovarian
  TGI: > 100 µM
UACC-62 melanoma
  TGI: 97.1 µM
UO-31 renal
  TGI: 38.2 µM

## CCOC(=O)/C=C(/C(=O)OCC)n1ccc(=O)n(Cc2cnnn2CCCCOC(C)=O)c1=O
CCRF-CEM leukemia
  TGI: 30.9 µM
HS 578T breast
  TGI: > 100 µM
OVCAR-4 ovarian
  TGI: > 100 µM
OVCAR-5 ovarian
  TGI: > 100 µM
SNB-75 CNS
  TGI: > 100 µM
UACC-62 melanoma
  TGI: > 100 µM
UO-31 renal
  TGI: > 100 µM

## CCOC(=O)C1(C(=O)OCC)C=C(c2ccccc2)N(C2OC(COC(C)=O)C(OC(C)=O)C(OC(C)=O)C2OC(C)=O)C1=S (stereo unspecified)
CCRF-CEM leukemia
  TGI: > 100 µM
HL-60(TB) leukemia
  TGI: 81.5 µM
HS 578T breast
  TGI: > 100 µM
OVCAR-4 ovarian
  TGI: > 100 µM
OVCAR-5 ovarian
  TGI: > 100 µM
UACC-62 melanoma
  TGI: > 100 µM
UO-31 renal
  TGI: > 100 µM

## C/C(O)=C(\C=NC(=S)c1ccncc1)C(=O)Nc1ccccc1C
HL-60(TB) leukemia
  TGI: > 100 µM
OVCAR-4 ovarian
  TGI: > 100 µM
OVCAR-5 ovarian
  TGI: > 100 µM
SNB-75 CNS
  TGI: > 100 µM
UACC-62 melanoma
  TGI: > 100 µM
UO-31 renal
  TGI: > 100 µM

## COc1ccc(CCN2C(=O)CC34C=CC(CC3C2=O)O4)cc1OC (stereo unspecified)
CCRF-CEM leukemia
  TGI: > 100 µM
HL-60(TB) leukemia
  TGI: > 100 µM
OVCAR-4 ovarian
  TGI: > 100 µM
OVCAR-5 ovarian
  TGI: > 100 µM
UACC-62 melanoma
  TGI: > 100 µM
UO-31 renal
  TGI: > 100 µM

## NS(=O)(=O)c1nnc(NS(=O)(=O)c2ccc([N+](=O)[O-])cc2)s1
HL-60(TB) leukemia
  TGI: > 100 µM
OVCAR-4 ovarian
  TGI: > 100 µM
OVCAR-5 ovarian
  TGI: > 100 µM
SNB-75 CNS
  TGI: > 100 µM
UACC-62 melanoma
  TGI: > 100 µM
UO-31 renal
  TGI: > 100 µM

## C/C(O[Si](C(C)C)(C(C)C)C(C)C)=C(\C)C(=O)N(C)c1ccccc1Cl
OVCAR-4 ovarian
  TGI: > 100 µM
OVCAR-5 ovarian
  TGI: > 100 µM
SNB-75 CNS
  TGI: > 100 µM
UO-31 renal
  TGI: > 100 µM

## COc1ccc2c(c1OC)C(=O)O[C@@H]2[C@H]1c2c(cc3c(c2OC)OCO3)CCN1C
CCRF-CEM leukemia
  TGI: > 100 µM
HS 578T breast
  TGI: 67.4 µM
OVCAR-4 ovarian
  TGI: > 100 µM
OVCAR-5 ovarian
  TGI: > 100 µM
SNB-75 CNS
  TGI: 34 µM
UACC-62 melanoma
  TGI: > 100 µM
UO-31 renal
  TGI: > 100 µM

## Cc1nc(Nc2ccc(Cl)c(Cl)c2)sc1C(=O)/C=C/c1ccc2c(c1)OCO2
CCRF-CEM leukemia
  TGI: > 100 µM
HL-60(TB) leukemia
  TGI: 43.4 µM
OVCAR-4 ovarian
  TGI: 33.9 µM
OVCAR-5 ovarian
  TGI: > 100 µM
SNB-75 CNS
  TGI: 31.4 µM
UACC-62 melanoma
  TGI: > 100 µM
UO-31 renal
  TGI: 33.7 µM

## O=C(NC1(C(=O)O)CCCC1)c1ccccc1
CCRF-CEM leukemia
  TGI: > 100 µM
HL-60(TB) leukemia
  TGI: > 100 µM
HS 578T breast
  TGI: > 100 µM
OVCAR-5 ovarian
  TGI: > 100 µM
UACC-62 melanoma
  TGI: > 100 µM
UO-31 renal
  TGI: > 100 µM

## COc1ccccc1C1C(C#N)=C(N)Oc2cc(O)ccc21 (stereo unspecified)
CCRF-CEM leukemia
  GI50: 12 µM
  TGI: 29.1 µM
HL-60(TB) leukemia
  GI50: 18.8 µM
  TGI: > 100 µM
HS 578T breast
  GI50: 34.1 µM
  TGI: > 100 µM
OVCAR-4 ovarian
  GI50: 25.3 µM
  TGI: 85.9 µM
OVCAR-5 ovarian
  GI50: 29.2 µM
  TGI: > 100 µM
SNB-75 CNS
  GI50: 23 µM
  TGI: 56.4 µM
UO-31 renal
  GI50: 29.3 µM
  TGI: > 100 µM
